Assay: Drospirenone solubility in liquid excipients
Assay type: physicochemical
Conditions: weight-weight basis
Experimental: The solubility of drospirenone in liquid excipients was obtained using the following test method. Drospirenone was incrementally added to excipient until it stopped dissolving. The saturated solution was then filtered through a 0.45 μm polytetrafluoroethylene filter to remove excess drug particles. The concentration of drospirenone was then analyzed for drug using conventional high performance liquid chromatography methods. The values are reported as the percent solubility on a weight-weight basis.

solubility of drospirenone (in benzyl alcohol): 44.4% | solubility of drospirenone (in benzyl lactate): 22.6% | solubility of drospirenone (in glyceryl monooleate): 2.0% | solubility of drospirenone (in lauryl alcohol): 1.0% | solubility of drospirenone (in lauryl lactate): 1.4% | solubility of drospirenone (in methyl lactate): 11.6% | solubility of drospirenone (in methyl laurate): 0.6%
Compound: C[C@]12CCC(=O)C=C1[C@@H]1C[C@@H]1[C@H]1[C@@H]3[C@@H]4C[C@@H]4[C@@]4(CCC(=O)O4)[C@@]3(C)CC[C@@H]12 [drospirenone, 6β,7β,15β,16β-dimethylene-3-oxo-17α-pregn-4-ene-21,17-carbolactone]

Source: patent US20090181075A1, “DROSPIRENONE CONTAINING TRANSDERMAL DRUG DELIVERY DEVICES AND METHODS OF DELIVERY THEREOF” (priority 2005, published 2009)
